Data on 1 compound can be found in paper PMC3404106, “Pharmacology of DB844, an Orally Active aza Analogue of Pafuramidine, in a Monkey Model of Second Stage Human African Trypanosomiasis” (PLoS Neglected Tropical Diseases, 2012).

The subject of this test is Trypanosoma brucei rhodesiense KETRI 2537. Description: Efficacy in vervet monkey model of second stage HAT. The test is classed as in vivo. As to conditions: for TOC test at 300 days post last dose / EoT test at 1 day post last dose (trypanosomes in blood/CSF) / EoT test at 4 days post last dose (trypanosomes in blood/CSF): individual monkeys; for EoT test at 1 day post last dose (trypanosomes in blood/CSF) / EoT test at 4 days post last dose (trypanosomes in blood/CSF): Neg/Pos. From the text: A pleomorphic isolate, T.b rhodesiense KETRI 2537, a derivative of EATRO 1989 that was isolated from a patient in Uganda by direct inoculation of blood and lymph node aspirate into a monkey and later cryopreserved at KARI- TRC [18], was used. This isolate is the basis of the KETRI vervet monkey and mouse models and has been widely used for drug efficacy trials, [20].
Sixteen vervet monkeys in two groups of eight monkeys each (four males and four females) were used. After a 14-day baseline weight, clinical and haematology data collection period, the sixteen monkeys were infected by intravenous injection of approximately 10^4 trypanosomes diluted from infected blood of immuno-suppressed donor Swiss white mice. Parasitaemia post infection was determined by examination of wet film of ear prick blood and/or examination of buffy coat after centrifugation of blood collected in a heparinised capillary tube as described previously. Parasitaemia in wet film was estimated using the rapid matching method of Herbert and Lumsden. In addition, monkeys were confirmed to be in second stage disease by detection of trypanosomes in the CSF with or without elevated white cell counts above 5 cells/µl, [20], [21], [23]. At 28 days post infection (DPI), the animals were treated with DB844 via oral gavage at 5 mg/kg qd×10 days (group I, n = 8) or 6 mg/kg qd×14 days (group II, n = 8), utilising a dose volume of 1 ml/kg. The monkeys were examined for parasitaemia every day during drug treatment and then twice weekly until ≥300 days post dosing, at which point monkeys were considered cured if they remained clinically normal and parasite-free as determined below.

Where [1] appears, read: group I: DB844 5 mg/kg×10 days per os, 28–37 DPI, 5 mg/kg.
The mark [2] stands for this setting: group II: DB844 6 mg/kg×14 days per os, 28–41 DPI, 6 mg/kg.
Where [3] appears, read: relapsed monkeys of both groups.

Values joined by “and” are separate entries in the source; they are usually repeats but may differ in a detail not shown here. Equal values may be shown once. “Also recorded” adds a separate entry of the source.

Take `CONC(=N)c1ccc(-c2ccc(-c3ccc(C(=N)NOC)cn3)o2)cc1` [DB844, N-methoxy-6-{5-[4-(N-methoxyamidino)phenyl]-furan-2-yl}-nicotinamidine]: the “EoT provisional cure rate at 4 days post dosing” value (both groups (5 mg/kg×10 days and 6 mg/kg×14 days)) was determined as 100%. Moreover, where the note is “both study groups”, the overall cure rate entry is “approximately 40%”. Further, for the setting “four days post the last drug dose, any monkey”, the “trypanosomes in the blood or cerebrospinal fluid at end of treatment evaluation” value is “not detected”. In addition, under setting [1], the “TOC test at 300 days post last dose” value is given as “Cured; also recorded: Relapsed”; the “EoT test at 1 day post last dose (trypanosomes in blood/CSF)” value is “Neg and Pos”; the “EoT test at 4 days post last dose (trypanosomes in blood/CSF)” value is “neg and Neg”. Also, under setting [2], the “TOC test at 300 days post last dose” value is recorded as “Cured; also recorded: Relapsed”; the “EoT test at 1 day post last dose (trypanosomes in blood/CSF)” value is “Neg and Pos”. In addition, the “EoT test at 4 days post last dose (trypanosomes in blood/CSF)” value (group II: DB844 6 mg/kg×14 days per os, 28–41 DPI) is on record as “Neg”. Also, under “oral DB844, best of the two regimens”, the “cure rate in the vervet monkey model of 2nd stage HAT” value is “up to 43%”. Moreover, under setting [3], the “median (range) time to trypanosome recrudescence in CSF” value is 133 (35–322, n = 9) days and 133 days; the “median (range) time to trypanosome recrudescence in blood” value was 261 (239–322, n = 3) days and 261 days.
